{"source": "patent US12157869B2", "about": "“Methods and compositions for reducing persistent odor in clothing and mitigating biofilms on various materials” (priority 2019, dated 2024)", "key": {"[1]": {"test_system": "biofilm matter in clothing", "assay": "UV light visualization of fluorescence of suspected biofilm matter in clothing (optical brightener / Calcofluor White)", "procedure": "Three UV lamps were used in testing fluorescence in potential biofilms. These included a Lightfe® UV301D lamp providing a beam at 365 nm, a UVBeast V3 lamp operating at 395 nm, and a UV Nova 108-LED UV lamp operating at 395 nm.\nIn one approach, biofilm candidates were stained using Calcofluor White M2R dye, a fluorescent brightener purchased from Phyto Technology Laboratories (Shawnee Mission, Kansas), CAS No. 4404-43-7. A solution was prepared of 0.074% Calcofluor white in water, and given the name CF1.\nIn examining fluorescence, it was eventually noted that both an SLR camera and an iPhone camera could not easily capture the fine details of fluorescence when using any of the UV lamps available for this study, probably because the fluorescence, including some background fluorescence, may have interfered with the camera's visible light operations. […] A rubber band was sufficient for holding it in place."}, "[2]": {"test_system": "darkened regions believed to be biofilm remnants in clothing", "assay": "Visible-light inspection of darkened or yellow regions in clothing", "conditions": "shirt CH1; left pit 6 g 2.1% NAC then 1.95 g E3; right pit 2.1 g E3 without NAC; about 20 min, short cycle 30°C Purex", "from_the_text": "FIG. 10A depicts the left pit of shirt CH1 in visible light after the treatments described previously (as well as the treatment with optical brighter). A dark region 202 is still present that appears to come from within the fabric rather than resting on its surface. It is believed to come from biofilm material such as polysaccharides, proteins, and genetic material, that is capable of adhering to optical brighteners such as CF1 solution. FIG. 10B depicts the same region in UV light using the UVBeast V3 lamp. The dark region 202 of FIG. 10A is now a fluorescent region 204 with the appearance of a purple color, believed to result from Calcofluor White fluorescence couple with the dark matter's blocking of the fluorescence of the shirt material itself. […] The fluorescence in CH1 was bright enough to be detected even with the orange dye of the shirt brightly fluorescing at the same time."}, "[3]": {"test_system": "persistent odor (perma-odor) in clothing", "assay": "Odor evaluation of treated clothing by smelling (odor level on a scale of 0 to 5)"}}, "note": "Structures can show the parent of a compound that is named as a salt.", "data": [{"molecule": "O=C(O)CC(O)(CC(=O)O)C(=O)O", "note": "[sodium citrate]", "values": [{"measurement": "fluorescence of previously treated pits", "setting": "[1]; shirt RA1, 12% sodium citrate solution 7 g then 1.72 g E3D, about 30°C 3 hours, Lemon Brite", "value": "only very slight improvement at best"}, {"measurement": "reddish fluorescent zone", "setting": "[1]; shirt RA1, 12% sodium citrate solution then E3D", "value": "significant reduction"}, {"measurement": "fluorescence of previously untreated spot", "setting": "[1]; shirt RA1, 12% sodium citrate solution then E3D, about 30°C 3 hours, also slightly smaller in extent", "value": "significantly reduced in brightness"}, {"measurement": "fluorescence of two zones of right pit", "setting": "[1]; shirt RA1, each about 2.3 g 12% citrate solution, lower zone also 1.86 g E3D, 40-45°C two hours", "value": "only little reduction in fluorescence"}]}, {"molecule": "CC(=O)N[C@@H](CS)C(=O)O", "note": "[NAC, N-acetyl cysteine]", "values": [{"measurement": "darkened regions after wash", "setting": "[2]", "value": "perhaps slightly lighter"}, {"measurement": "fluorescent zones after wash", "setting": "[1]; shirt BD1, right pit 2.1% NAC (pH 4) then E3C", "value": "slightly decreased in intensity"}, {"measurement": "intensity of fluorescent zones after wash", "setting": "[1]; shirt BD1, right pit 5.2 g 2.1% NAC pH 6.4 then 3.0 g E3D, left pit water then 3.28 g E3D, about 33°C 2 hours, full cycle 40°C Tide", "value": "may have decreased slightly"}, {"measurement": "fluorescence after CF1 staining, left pit", "setting": "[1]; shirt CH1, 2.1% NAC then E3, wash, Lightfe UV301D 365 nm", "value": "perhaps weaker than initially seen"}, {"measurement": "fluorescence after wash", "setting": "[1]; shirt RA1, left pit 4.54 g 2.1% NAC then 10.7 g E3D, right pit 9.2 g E3D only, about 33°C 2 hours, short cycle 30°C Purex", "value": "significant reduction in fluorescence"}, {"measurement": "residual fluorescence, lower versus upper half of left pit", "setting": "[1]; shirt RA1, lower half 2.15% NAC (pH 6.4 and 9.17), upper half water, both CellulaseC 5.6 g and AmylaseA 1.94 g, about 28°C 30 min", "value": "declined more strongly"}, {"measurement": "odor after one work day, shirt AA left pit", "setting": "[3]; 2.1% NAC and NIC, wash", "value": "remained smelling fresh"}, {"measurement": "odor after one work day, shirt AA right pit", "setting": "[3]; 2.1% NAC, NIC and 2 g E2, wash", "value": "smell again"}, {"measurement": "owner's report after wash and exercise, shirt WL", "setting": "[3]; left pit 4.8 g 2% NAC (pH 7.8), 2 min, 6.5 g NIC, 10 min, 5 g NIC, liquid Tide", "value": "substantial improvement"}, {"measurement": "odor after heavy exercise, shirt RL", "setting": "[3]; right pit 2% NAC pH 7.8 then NIC, left pit NIC only, washed", "value": "strong odor"}, {"measurement": "odor level after washing and exercise, shirt BL right pit", "setting": "[3]; right pit 2.1% NAC, EGCD-2, left pit about 2, scale of 0 to 5", "value": "~1"}, {"measurement": "odor after washing and exercise, shirt WL", "setting": "[3]; right pit 2.1% NAC, EGCD-B, NIC", "value": "very little odor"}, {"measurement": "odor level after washing and exercise, shirt RL", "setting": "[3]; right pit 2.1% NAC, EGCD-B, NIC, both pits about the same, scale of 0 to 5", "value": "about 2"}, {"measurement": "odor following exercise, shirt AB", "setting": "[3]; right pit 8.2 g 2.1% NAC, 3.3 g NIC, 5.4 g LPS1, wash", "value": "smell better in general"}, {"measurement": "residual odor after wash, shirt RL", "setting": "[3]; right pit 9.1 g 2% NAC pH 7.8, 11 min, 5.8 g NIC, left pit 10 g NIC only", "value": "appeared to have been eliminated"}, {"measurement": "odor level after washing and drying", "setting": "[3]; shirt BD1 right pit, 5.2 g 2.1% NAC (pH 4) then 2.9 g E3C, Purex, about 3 before, untreated left pit about 1, scale of 1 to 5", "value": 0}, {"measurement": "odor after handwash and air drying", "setting": "[3]; shirt CH1, right pit 3.2% NAC solution (2 g outside and inside), 2 min, then NIC 4.83 g, left pit NIC only 7.4 g, 5 min", "value": "smelled better than the left"}, {"measurement": "odor intensity after exercise and 48 hours storage at room temperature", "setting": "[3]; shirt CH1, right pit second treatment: 8 ml NAC solution (600 mg effervescent tablet in 100 ml) then 5.3 ml EGCD-A, 20 min, left pit earlier NIC only, 0 to 5 scale", "value": "2 to 3"}, {"measurement": "odor rating after further exercise, left pit", "setting": "[3]; shirt CH1 left pit, 10 g 2% NAC solution 10 min, 9 g NIC 15 min, rinse, wash (Bright Blue Moon), scale 0 to 5", "value": "2 to 3"}, {"measurement": "odor after exercise relative to left pit", "setting": "[3]; shirt CH1 right pit, 2% NAC solution, washed, odor level about 5 before", "value": "significantly reduced"}, {"measurement": "odor level after washing", "setting": "[3]; shirt CH1 right pit, 2.4 g pH 3.0 NAC solution, 5 min, short cycle with Bright Blue Moon, scale of 0 to 5", "value": "about 0.5"}, {"measurement": "odor after handwash and drying", "setting": "[3]; shirt CH1 right pit, 21 g 2% NAC solution, 5.94 g EGCD-A, 10 min, 7 g NIC, about 10 min", "value": "no odor"}, {"measurement": "odor rating after further exercise, right pit", "setting": "[3]; shirt CH1 right pit, earlier NAC, EGCD-A and NIC treatments, scale 0 to 5", "value": "about 1"}, {"measurement": "odor after washing and air drying", "setting": "[3]; shirt Dec1 right pit, 1.6 g of 1.8% NAC solution (pH about 2), then standard wash with Bright Blue Moon enzymatic detergent", "value": "some odor"}, {"measurement": "odor of treated pits after wash", "setting": "[3]; shirts AA, AB, AC, 2.1% NAC solution, about 10 min, then NIC (some pits also E2 or LPS1), 15 min, wash with Bright Blue Moon, versus untreated pits or pits without NAC", "value": "smelled better than before"}, {"measurement": "odor after washing", "setting": "[3]; shirts RL, BL, WL right pits, 2.1% NAC solution 12-13.5 g, then EGCD-B or EGCD-2, then NIC (RL, WL), owner's report", "value": "significantly reduced odor"}]}]}
